“And” between values parts separate entries of the source, which are not always exact repeats. Equal entries are not always repeated.
How the values were obtained:
[1] = tested on: circulating lymphocyte subsets (CD4+ T cells, CD8+ T cells, NK cells); assay: Circulating lymphocyte subsets by flow cytometry in HIV-positive subjects on PART + IL-2 and after cessation of PART; type: in vivo, human
Excerpt: Conditions for patient exclusion included a) uncontrolled infection; b) concurrent therapy with glucocorticoids or other immunosuppressive agents; or c) concurrent immunomodulating agents, eg. IFN-a, granulocyte colony stimulating factor (G-CSF), granulocyte-monocyte colony stimulating factor (GM-CSF).
(§1) Prior to the discontinuation of PART, at least 3 months of daily, low-dose (250,000 U/m^2) subcutaneous IL-2 (R-Met-HU IL2-Ala-125, Amgen, Thousand Oaks, Calif.) immuno-stimulatory therapy were administered as described in Jacobsen, E L et al., Proc Natl Acad Sci USA 93:10405-10 (1996). In addition, to ensure the safest possible immune parameters for the discontinuation of PART, IL-2 immuno-stimulation was continued after the anti-viral drugs were withdrawn.
Subsequent to the discontinuation of PART, plasma HIV was monitored twice weekly. Plasma HIV RNA concentrations were determined on EDTA anti-coagulated plasma samples, which were frozen (−70° C.) within 3 hours of phlebotomy. Samples were assayed by Bayer Diagnostics, Emeryville, Calif. Lymphocyte subsets were determined on fresh blood samples by flow cytometry using subset-specific monoclonal antibodies and a FACSCaliber from Becton-Dickinson, San, Jose, Calif. by standard procedures according to the manufacturer.
For 3 months prior to the discontinuation of PART, the concentration of circulating lymphocyte subsets were monitored monthly (see Table 1). Subsequent to the discontinuation of PART, the lymphocytes were monitored weekly. Whole blood (1 ml) was activated in vitro with HIV recombinant p55 antigen (Chiron Corp., Emeryville, Calif., 1 μg/ml) for 6 hours at 37 C. During the last 4 hours, Brefeldin A (Sigma, Inc., St. Louis, Mo., […]) was added to retard cytokine secretion. At the end of the incubation, EDTA (Sigma, 100 mM) was added, the blood was vortexed vigorously for 10 seconds, and the erythrocytes were lysed using 10 ml FACSLysing Reagent. After a 10 minute incubation the leukocytes were separated by centrifugation (500×g, 10 min), then resuspended and frozen (−70 C) in 2 ml R.P.M.I. 1640 tissue cuture medium containing 10% fetal calf serum and 10% dimethyl sulfoxide. Prior to labeling with monoclonal antibodies, the cells were thawed, centrifuged (500×g, 10 min) and permeabilized using FACSPerm. After washing with 3 ml phosphate buffered saline (PBS), the cells were incubated with fluorochrome-conjugated monoclonal antibodies for 30 minutes at room temperature in the dark. The cells were then washed 1× with PBS, and then fixed with 0.5% paraformaldehyde and analyzed by flow cytometry.

plasma HIV RNA = assay: Plasma HIV RNA (branched chain DNA assay) after cessation of PART with continued low-dose IL-2; type: in vivo; conditions: for Increasing HIV Dbl time: IL-2 250,000 U/m^2 daily continued; for Max. Decrease (log): peak to trough
Method: The parameters monitored throughout the study included the time to the onset of viremia, the rate of viremic increase, the peak plasma virus concentration and the rapidity and completeness of the disappearance of viremia.
as §1, with “withdrawn. […] All subjects had undetectable plasma virus during this interval.” for “withdrawn.”
Subsequent to the discontinuation of PART, plasma HIV was monitored twice weekly. Plasma HIV RNA concentrations were determined on EDTA anti-coagulated plasma samples, which were frozen (−70° C.) within 3 hours of phlebotomy. Samples were assayed by Bayer Diagnostics, Emeryville, Calif. Lymphocyte subsets were determined on fresh blood samples by flow cytometry using subset-specific monoclonal antibodies and a FACSCaliber from Becton-Dickinson, San, Jose, Calif. by standard procedures according to the manufacturer. All subjects eventually experienced a relapse of viremia The onset of viremia in each subject was taken as t=day 1. The mean time interval until plasma virus once again became detectable was 19±3 (SEM) days (range 14-39 days). Once detectable, the plasma virus concentration increased progressively over 2.5 weeks, reaching a mean peak of 375,101±229,139 (SEM) (log10=5.15±0.21) HIV RNA molecules/ml. Thereafter, the virus concentration decreased progressively over the next 4-6 weeks, reaching an apparent trough defined as at least 4 successive measures of HIV RNA that varied less than 3-fold. By 6 weeks from the onset of the viremia, the mean virus concentration had decreased to 31,707±11,851 (SEM) (log10=4.21±0.19) HIV RNA molecules/ml, a drop from the peak viral concentration by an order of magnitude.

HCV = conditions: cited from earlier work
[2] = after cessation of PART, IL-2 continued, subject #1-9, mean
[3] = after cessation of PART, IL-2 continued, subject #1-9, mean, mean
[4] = second treatment interruption, 4 subjects

## Interleukin-2 [IL-2]
[1]; after 2 weeks of viremia
  CD8+ T cell concentration as % of baseline levels: > 200 % of baseline
[1]; after cessation of PART
  mean peak increase of CD8+ T cells, group with more rapid viral decline: 350 % of baseline
  mean peak increase of CD8+ T cells, group with slower viral decline: 150 % of baseline
[1]; entire interval after discontinuation of PART
  change of circulating NK cells: did not change significantly
[1]; just after the peak of viremia, after discontinuation of PART
  decrease of circulating CD4+ T cells compared with baseline: 24%
[1]; subject D3
  fold increase of CD8+ T cells from baseline: 8 fold
[1]; subject D3, coincident with drop in plasma HIV RNA
  CD8+ T cells at peak: 4,669 cells/mm3
Plasma HIV RNA; 3 of 4 individuals
  peak plasma HIV RNA after the first interruption: 5.53±0.54 log10 HIV RNA molecules/ml
  peak plasma HIV RNA after the second interruption: 4.27±0.27 log10 HIV RNA molecules/ml
  peak plasma HIV RNA lower after second than first interruption: 1.26±0.14 log10 HIV RNA molecules/ml
Plasma HIV RNA; after cessation of PART, subject #1-9, mean
  Increasing HIV Dbl time: 2.7 days and 1.3 days and 1.0 days and 2.0 days (2×) and 1.6 days (3×) and 1.2 days
Plasma HIV RNA; after cessation of PART, subject #1-9, mean, mean
  Increasing HIV Dbl time: 1.6 days
Plasma HIV RNA; [2]
  Decreasing HIV Time to Min.: 9 days and 28 days and 24 days and 7 days and 26 days (2×) and 10 days and 17 days and 18 days
  Increasing HIV Days to Peak: 28 days and 14 days (3×) and 21 days and 16 days (2×) and 18 days and 10 days
  Peak HIV #: 375,101±229,139 HIV RNA molecules/ml and 230,074 HIV RNA molecules/ml and 14059 HIV RNA molecules/ml and 40662 HIV RNA molecules/ml and 295942 HIV RNA molecules/ml and 160949 HIV RNA molecules/ml and 2185670 HIV RNA molecules/ml and 300203 HIV RNA molecules/ml and 375101 HIV RNA molecules/ml and 80910 HIV RNA molecules/ml and 230074 HIV RNA molecules/ml and 67442 HIV RNA molecules/ml
  Peak HIV (log): 5.15±0.21 log and (4.15) log and (4.61) log and (5.47) log and (5.21) log and (6.34) log and (5.48) log and (5.15) log and (4.91) log and (5.36) log and (4.83) log
  Trough HIV (log): 4.21±0.19 log and (3.96) log and (4.36) log and (4.69) log and (4.93) log and (4.97) log and (4.21) log and (3.68) log and (4.00) log and (3.36) log
Plasma HIV RNA; after cessation of PART, IL-2 continued, subject #1-9, mean (by 6 weeks from onset of viremia)
  Trough HIV #: 31,707±11,851 HIV RNA molecules/ml and 9215 HIV RNA molecules/ml and 9180 HIV RNA molecules/ml and 22695 HIV RNA molecules/ml and 48562 HIV RNA molecules/ml and 85782 HIV RNA molecules/ml and 92901 HIV RNA molecules/ml and 31707 HIV RNA molecules/ml and 4741 HIV RNA molecules/ml and 10024 HIV RNA molecules/ml and 2266 HIV RNA molecules/ml
Plasma HIV RNA; [3]
  Decreasing HIV Time to Min.: 18 days
  Increasing HIV Days to Peak: 17 days
Plasma HIV RNA; after discontinuation of PART, 9 subjects, mean ± SEM and range
  time interval until plasma virus once again became detectable: 19 ± 3 days and 14 to 39 days
Plasma HIV RNA; first 10 days after peak, IL-2 continued, subject #1-9, mean
  Decreasing HIV T ½: 84 ± 17 h and 182 h and 125 h and 132 h and 81.6 h and 38.4 h and 93.6 h and 84 h and 36 h and 43.2 h
Plasma HIV RNA; subject #1-9, mean
  Max. Decrease (log): 0.19 log and 0.65 log and 1.11 log and 0.52 log and 1.41 log and 0.51 log and 1.23 log and 1.36 log and 1.47 log
Plasma HIV RNA; subject #1-9, mean, mean
  Max. Decrease (log): 0.94 log
Plasma HIV RNA; [4]
  latent period to detectable viremia: 14.5 ± 4.1 days
  rate of doubling (t½): 36 ± 7.2 h
Plasma HIV RNA; subject D3
  days plasma HIV RNA undetectable after discontinuation of PART: 39 days
  plasma HIV RNA after 98 days as % of the peak viral concentration: < 1%
  plasma HIV RNA after 98 days without PART: 1,686 HIV RNA molecules/ml
Plasma HIV RNA; subjects #1, 2, 3, 8
  mean magnitude of decline of plasma HIV, rapid rate subjects: 1.37±0.05 log10 HIV RNA molecules/ml
  t ½ of viral decline, subjects with rapid rate: 38.4 ± 2.4 h
Plasma HIV RNA; subjects #4, 5, 6, 7, 9
  magnitude of decline of plasma HIV, slower rate subjects: 0.59±0.15 log10 HIV RNA molecules/ml
  mean t ½ of viral decline, subjects with slow rate: 122 ± 17 h
HCV; 33 subjects, s.c., 12 weeks, no IFN
  dose best tolerated and most effective: 2×10^6 CT/day
HCV; in vivo
  sustained virologic response: No sustained virologic response was found
HCV; preferred dose, 12 weeks
  biochemical response rate (normalization of ALT) at the end of treatment: 24%
HCV; preferred dose
  biochemical response rate 6 months following a 12 week course: 12%
